Reference: ChEMBL document CHEMBL3244171, “[1-(beta-mercapto-beta,beta-cyclopentamethylenepropionic acid),4-valine,-8-D-arginine]vasopressin, a potent and selective inhibitor of the vasopressor response to arginine-vasopressin” (J Med Chem, 1978)
Where a SMILES comes first, the peptide text is derived from it.

Legend:
[1] = Antioxytocic activity in rat uterus assessed as antagonist activity on oxytocin-induced effect; format: functional, tissue-based
Rattus norvegicus = experiment: Antidiuretic activity in iv dosed rat assessed as agonist activity on arginine-vasopressin-induced effect; format: functional, Urine

Compound	pA2 [1]	Activity (Rattus norvegicus) [U/ml]
CC(C)[C@@H]1NC(=O)[C@H](Cc2ccccc2)NC(=O)[C@H](Cc2ccc(O)cc2)NC(=O)CC(C)(C)SSC[C@@H](C(=O)N2CCC[C@H]2C(=O)N[C@H](CCCNC(=N)N)C(=O)NCC(N)=O)NC(=O)[C@H](CC(N)=O)NC1=O (HELM PEPTIDE1{Y.F.V.N.C.P.[dR].G.[am]}|CHEM1{[CC(C)(CC(=O)[*:1])S[*:2]]}$PEPTIDE1,CHEM1,1:R1-1:R1|PEPTIDE1,CHEM1,5:R3-1:R2$$$V2.0)	7.23	–
CC(C)[C@@H]1NC(=O)[C@H](Cc2ccccc2)NC(=O)[C@H](Cc2ccc(O)cc2)NC(=O)CC2(CCCCC2)SSC[C@@H](C(=O)N2CCC[C@H]2C(=O)N[C@H](CCCN=C(N)N)C(=O)NCC(N)=O)NC(=O)[C@H](CC(N)=O)NC1=O (HELM PEPTIDE1{Y.F.V.N.C.P.[dR].G.[am]}|CHEM1{[O=C(CC1(S[*:2])CCCCC1)[*:1]]}$PEPTIDE1,CHEM1,1:R1-1:R1|PEPTIDE1,CHEM1,5:R3-1:R2$$$V2.0)	6.62	0.1
